# Laboratory results reported in patent US20260027116A1, “Methods of Treating Chronic Graft-Versus-Host Disease Following Allogeneic Hematopoietic Stem Cell Transplantation” (Kadmon Corporation, LLC, priority 2022, published 2026).
# Where two headings read alike, the source gives them in different places.
# Assays:
# [1] = test system: patients with chronic GVHD; conditions: for Abdominal pain / Arthralgia / Cough / Decreased appetite / Diarrhea / Dysphagia / Dyspnea / Edema / Headache / Hemorrhage / Hypertension / Infection (pathogen not specified) / Muscle spasm / Musculoskeletal pain / Nasal congestion / Pruritus / Pyrexia / Rash / Viral infection / Asthenia / Nausea: 200 mg once daily (N = 83); for Asthenia: includes fatigue, malaise; for Nausea: includes nausea, vomiting
# BCRP = target: T1, BCRP (Homo sapiens, UniProt Q9UNQ0); assay: transporter inhibition in vitro; assay type: in vitro ADME; conditions: at clinically relevant concentrations
# T1 sequence (Q9UNQ0 1-655): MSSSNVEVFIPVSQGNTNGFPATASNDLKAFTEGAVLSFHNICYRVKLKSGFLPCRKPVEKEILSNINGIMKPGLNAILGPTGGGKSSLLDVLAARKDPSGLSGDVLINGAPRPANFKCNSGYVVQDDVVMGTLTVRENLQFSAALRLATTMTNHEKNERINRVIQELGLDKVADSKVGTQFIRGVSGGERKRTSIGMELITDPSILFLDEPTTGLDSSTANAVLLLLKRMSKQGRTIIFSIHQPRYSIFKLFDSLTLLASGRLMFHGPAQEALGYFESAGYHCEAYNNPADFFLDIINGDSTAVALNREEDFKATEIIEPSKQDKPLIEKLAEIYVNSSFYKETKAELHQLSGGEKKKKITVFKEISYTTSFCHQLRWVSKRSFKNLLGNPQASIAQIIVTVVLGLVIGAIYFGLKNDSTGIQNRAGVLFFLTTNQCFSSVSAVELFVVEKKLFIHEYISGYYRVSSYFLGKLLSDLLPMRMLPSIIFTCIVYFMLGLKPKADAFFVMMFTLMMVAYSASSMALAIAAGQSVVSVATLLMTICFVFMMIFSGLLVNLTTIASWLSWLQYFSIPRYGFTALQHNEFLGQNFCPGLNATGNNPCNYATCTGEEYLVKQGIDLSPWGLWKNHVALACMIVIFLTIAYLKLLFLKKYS
# UGT1A9 = target: T2, UGT1A9 (Homo sapiens, UniProt O60656); assay: enzyme inhibition in vitro; assay type: in vitro ADME
# T2 sequence (O60656 26-530): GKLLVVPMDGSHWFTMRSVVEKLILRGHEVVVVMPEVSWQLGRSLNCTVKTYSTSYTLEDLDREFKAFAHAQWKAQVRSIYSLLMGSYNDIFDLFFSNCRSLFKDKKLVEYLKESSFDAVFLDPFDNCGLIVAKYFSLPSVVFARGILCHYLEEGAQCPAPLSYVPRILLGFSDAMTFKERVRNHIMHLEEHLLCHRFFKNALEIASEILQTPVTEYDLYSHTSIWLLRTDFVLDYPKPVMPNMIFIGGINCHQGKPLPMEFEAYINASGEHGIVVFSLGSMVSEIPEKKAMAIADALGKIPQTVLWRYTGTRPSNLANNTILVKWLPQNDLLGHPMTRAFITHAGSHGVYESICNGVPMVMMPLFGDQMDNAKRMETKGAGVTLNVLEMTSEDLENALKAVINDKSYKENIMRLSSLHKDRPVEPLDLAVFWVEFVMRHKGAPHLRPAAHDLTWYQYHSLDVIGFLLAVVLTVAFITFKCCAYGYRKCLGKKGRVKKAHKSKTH
# [2] = Grade 2-4 Max Post, 200 mg once daily
# [3] = Grade 3-4 Max Post, 200 mg once daily
structure (smiles),measurement,setting,value
"CC(C)NC(=O)COc1cccc(-c2nc(Nc3ccc4[nH]ncc4c3)c3ccccc3n2)c1 [Belumosudil, 2-{3-[4-(1H-indazol-5-ylamino)-2-quinazolinyl]phenoxy}-N-(propan-2-yl) acetamide]",adverse reactions leading to dose interruption,"[1]; 200 mg once daily, N=83",29%
same,"dose interruption due to asthenia, dyspnea, hemorrhage, hypotension, liver function test abnormal, nausea, pyrexia, edema, renal failure (each)","[1]; 200 mg once daily, N=83",2%
same,dose interruption due to diarrhea,"[1]; 200 mg once daily, N=83",4%
same,dose interruption due to infections,"[1]; 200 mg once daily, N=83",11%
same,patients with fatal adverse reaction,"[1]; 200 mg once daily, N=83",one
same,permanent discontinuation due to adverse reactions,"[1]; 200 mg once daily, N=83",18%
same,permanent discontinuation due to nausea,"[1]; 200 mg once daily, N=83",4%
same,Abdominal pain,[1]; All Grades,22%
same,Arthralgia,[1]; All Grades,15%
same,Cough,[1]; All Grades,30%
same,Decreased appetite,[1]; All Grades,17%
same,Diarrhea,[1]; All Grades,35%
same,Dysphagia,[1]; All Grades,16%
same,Dyspnea,[1]; All Grades,33%
same,Edema,[1]; All Grades,27%
same,Headache,[1]; All Grades,21%
same,Hemorrhage,[1]; All Grades,23%
same,Hypertension,[1]; All Grades,21%
same,Infection (pathogen not specified),[1]; All Grades,53%
same,Muscle spasm,[1]; All Grades,17%
same,Musculoskeletal pain,[1]; All Grades,22%
same,Nasal congestion,[1]; All Grades,12%
same,Pruritus,[1]; All Grades,11%
same,Pyrexia,[1]; All Grades,18%
same,Rash,[1]; All Grades,12%
same,Viral infection,[1]; All Grades,19%
same,Asthenia,[1]; All Grades,46%
same,Nausea,[1]; All Grades,42%
same,Alanine Aminotransferase Increased,[1]; [2],7%
same,Alkaline Phosphatase Increased,[1]; [2],9%
same,Calcium Decreased,[1]; [2],12%
same,Creatinine Increased,[1]; [2],4%
same,Gamma Glutamyl Transferase Increased,[1]; [2],21%
same,Hemoglobin Decreased,[1]; [2],11%
same,Lymphocytes Decreased,[1]; [2],29%
same,Neutrophil Count Decreased,[1]; [2],8%
same,Phosphate Decreased,[1]; [2],28%
same,Platelets Decreased,[1]; [2],10%
same,Potassium Increased,[1]; [2],7%
same,Alanine Aminotransferase Increased,[1]; [3],2%
same,Alkaline Phosphatase Increased,[1]; [3],0%
same,Calcium Decreased,[1]; [3],1%
same,Creatinine Increased,[1]; [3],0%
same,Gamma Glutamyl Transferase Increased,[1]; [3],11%
same,Hemoglobin Decreased,[1]; [3],1%
same,Lymphocytes Decreased,[1]; [3],13%
same,Neutrophil Count Decreased,[1]; [3],4%
same,Phosphate Decreased,[1]; [3],7%
same,Platelets Decreased,[1]; [3],5%
same,Potassium Increased,[1]; [3],1%
same,Abdominal pain,[1]; Grades 3-4,1%
same,Arthralgia,[1]; Grades 3-4,2%
same,Cough,[1]; Grades 3-4,0%
same,Decreased appetite,[1]; Grades 3-4,1%
same,Diarrhea,[1]; Grades 3-4,5%
same,Dysphagia,[1]; Grades 3-4,0%
same,Dyspnea,[1]; Grades 3-4,5%
same,Edema,[1]; Grades 3-4,1%
same,Headache,[1]; Grades 3-4,0%
same,Hemorrhage,[1]; Grades 3-4,5%
same,Hypertension,[1]; Grades 3-4,7%
same,Infection (pathogen not specified),[1]; Grades 3-4,16%
same,Muscle spasm,[1]; Grades 3-4,0%
same,Musculoskeletal pain,[1]; Grades 3-4,4%
same,Nasal congestion,[1]; Grades 3-4,0%
same,Pruritus,[1]; Grades 3-4,0%
same,Pyrexia,[1]; Grades 3-4,1%
same,Rash,[1]; Grades 3-4,0%
same,Viral infection,[1]; Grades 3-4,4%
same,Asthenia,[1]; Grades 3-4,4%
same,Nausea,[1]; Grades 3-4,4%
same,inhibition of BCRP,BCRP,inhibits
same,inhibition of UGT1A9,UGT1A9,inhibitor
